Series [1] addresses T1, GTP cyclohydrolase I from L. monocytogenes (Listeria monocytogenes serovar 1/2a, UniProt Q8Y5X1).
T1 construct: made in house; host or cells: Escherichia coli XL1-Blue, plasmid pNCO-His6-EK-LmGTP-CHI
The experiment in a line: Photometric GTP cyclohydrolase I inhibition assay (330 nm), IC50 determination of screening hits. It is filed as biochemical. To be noted: GTP cyclohydrolase I from L. monocytogenes (red curve); 200 µM GTP, pH 7.5; calculated with DynaFit. The procedure: (§1) In order to explore the druggability of the protein, we screened a small library of about 9000 highly diverse compounds (Bracher et al., 1998[▸]). Assays were run in 384-well plates and were monitored photometrically at 330 nm. Hits were rescreened against GTP cyclohydrolase I from L. monocytogenes and human GTP cyclohydrolase I, and IC50 values were determined using the photometric assay. […] Although stronger inhibitors have been reported down to a K i of 5.4 nM (Tanaka et al., 2005[▸]), all of the inhibitors reported so far are substrate or product analogs.
(§2) Assay mixtures contained 50 mM Tris hydrochloride, pH 7.5, 100 mM KCl, 200 µM GTP, and protein. They were monitored photometrically at 330 nm.
(§3) S2. High throughput screen
(§4) A substance library of 9,000 test compounds (courtesy of BASF Crop protection division, Ludwigshafen, Germany) was tested against GTP cyclohydrolase I protein from L. monocytogenes in 384 well clear bottom plates (Corning, polystyrol, flat-bottom, non-treated surface). 32 wells of each plate were used as “signal”, i.e. as positive control with enzyme and substrate, but without test compound. 32 wells of each plate were used as “control”, i.e. as negative control with substrate but without enzyme or test compound. Each of the remaining 320 wells contained app. 50 µM test compound (depending on the molecular weight of a given test substance) in 3 µL DMSO. The compounds were pipetted with a Hamilton Starlet robot (Hamilton Germany GmbH, Planegg, Germany) with a 96-tip pipetting block. Enzyme (final concentration 8.7 µM) and substrate (final concentration 200 µM) were supplied in separate solutions that both contained 50 mM Tris hydrochloride, pH 7.5 and 100 mM KCl. 30 µL per well of both solutions were filled in to the assay plates with an 8-fold dispenser (Bio Tek Germany, Bad Friedrichshall, Germany) and the plates were then centrifuged for 1 min at 1,000 rpm and room temperature. The reaction was monitored with a SpectraMax M5 plate reader photometer (Molecular Devices GmbH, Biberach a. d. Riss, Germany) at 330 nm and room temperature for 30 min. […]

In series [2] the target is T2, human GTP cyclohydrolase I (Homo sapiens, UniProt P30793).
T2 construct: made in house
T2 sequence (P30793 43-250 limits assumed): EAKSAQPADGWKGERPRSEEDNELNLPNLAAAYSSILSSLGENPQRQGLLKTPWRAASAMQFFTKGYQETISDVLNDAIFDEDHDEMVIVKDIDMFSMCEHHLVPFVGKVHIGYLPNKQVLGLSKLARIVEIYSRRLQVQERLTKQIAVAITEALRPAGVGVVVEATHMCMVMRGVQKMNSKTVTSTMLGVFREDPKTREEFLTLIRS
The experiment in a line: Photometric counterscreen against human GTP cyclohydrolase I (330 nm). It is filed as biochemical. To be noted: human GTP cyclohydrolase I (blue curve); 200 µM GTP, pH 7.5; calculated with DynaFit. As for the experimental part: as §1, §2, §3, §4

Series [3] concerns the molecule itself. The experiment in a line: crystal structure; sitting-drop vapor diffusion, 1.33 M sodium citrate, 0.1 M HEPES pH 7.3; 2.4 Å; one decamer in the asymmetric unit.

In the case of `Cc1ccc(OC(=S)Nc2ccc(NC(=S)Oc3ccc(C)cc3)cc2)cc1` [(c)], the values for the 50% inhibitory concentration (IC50) in series [1] and in series [2] were 36 ± 3 µM and 327 ± 66 µM, respectively.
On the same counts, the results for `C=CCNc1nc(N)c(C(=O)c2ccc3c(c2)OCO3)s1` [(a)] are 13 ± 1 µM and more than 500 µM.
Turning to `O=C1CS/C(=N/N=C/c2ccc(-c3ccc(Cl)cc3)o2)N1` [(b)], the half-maximal inhibitory concentration (IC50) was 27 ± 6 µM in series [1] and 238 ± 40 µM in series [2].

B1: GTP cyclohydrolase I from Listeria monocytogenes (enzyme, L. monocytogenes)
chain: EQIDKQKIADAVKVILEAVGENPDREGLIDTPMRVARMYEEVFAGLKKDPSVHFDTIFEEQHEELVLVKDIRFSSMCEHHLVPFFGVAHVAYLPQNGRVAGLSKLARVVDDVSRRPQLQERITTTVAEIMMEKLKPLGVMVIMEAEHMCMTIRGVNKPGTKTITSAVRGAFKNDDKLRSEVLALIKHN
modifications: Cys78 and Cys150 oxidized to the disulfide level (in the crystal; zinc lost)
notes: GTP cyclohydrolase I (folE), L. monocytogenes ATCC BAA-679; the natural stretch begins at Glu (first cloned triplet GAG) and runs to the stop codon; the printed Cys78 and Cys150 fit numbering with this Glu as residue 2; D5-symmetric homodecamer; also called LmGTPCHI; His6-EK-LmGTP-CHI; source: E. coli XL1-Blue (plasmid pNCO-His6-EK-LmGTP-CHI), purified (nickel-NTA agarose, Superdex 200); not …
Regarding B1, the “stoichiometry N” value in series [3] is 10.

Source of the values: publication PMC6718149, “Structure of GTP cyclohydrolase I from Listeria monocytogenes, a potential anti-infective drug target” (Acta Crystallographica. Section F, Structural Biology …, 2019).
